Results reported in patent US10471046B2, “Method for treating, preventing, or reducing the risk of skin infection” (Melinta Subsidiary Corp., priority 2014, dated 2019).
Converted amounts (≈) assume the structure as drawn. Like-named read-outs stand apart in the source and are kept apart here.

Columns and labels:
B. fragilis = experiment: Agar dilution MIC (CLSI reference method); type: cell-based; conditions: Bacteroides fragilis, ATCC25285; B. fragilis ATCC 25285
B. thetaiotaomicron [1] = experiment: microbe, parasite or virus in culture; type: cell-based; conditions: Bacteroides thetaiotaomicron, ATCC29741; B. thetaiotaomicron ATCC 29741; read-out: MIC, agar dilution
F. magna [2] = experiment: Agar dilution MIC (CLSI reference method); type: cell-based
P. acnes = experiment: Agar dilution MIC (CLSI reference method); type: cell-based; conditions: for MIC: Cutibacterium acnes
P. granulosum [3] = experiment: Agar dilution MIC (CLSI reference method); type: cell-based
G. vaginalis [4] = experiment: Agar dilution MIC (CLSI reference method); type: cell-based; conditions: for MIC: Gardnerella vaginalis
all organisms = experiment: Agar dilution MIC, range over the isolates tested; type: cell-based; conditions: read-out: agar dilution MICs for all organisms
B. thetaiotaomicron [5] = experiment: microbe, parasite or virus in culture; type: cell-based; conditions: Bacteroides thetaiotaomicron, ATCC29741; B. thetaiotaomicron ATCC 29741; read-out: MIC, broth microdilution
F. magna [6] = experiment: Broth microdilution MIC; type: cell-based; conditions: Finegoldia magna, ATCC15794; F. magna ATCC 15794
P. granulosum [7] = experiment: Broth microdilution MIC; type: cell-based
G. vaginalis [8] = experiment: Broth microdilution MIC; type: cell-based; conditions: for MIC: Gardnerella vaginalis
Enterococcus faecalis = experiment: MIC against ribosome-based resistance phenotypes; type: cell-based; conditions: read-out: Minimum Inhibitory Concentration (MIC)
Excerpt: (§1) Furthermore, the antibiotic compounds can be assayed for anti-proliferative or anti-infective properties on a cellular level. For example, where the target organism is a microorganism, the activity of compounds of interest can be assayed by growing the microorganisms of interest in media either containing or lacking the compound. Growth inhibition can be indicative that the molecule could be acting as a protein synthesis inhibitor. […] For this purpose, a panel of bacterial strains can be assembled to include a variety of target pathogenic species, some containing resistance mechanisms that have been characterized. Use of such a panel of organisms permits the determination of structure-activity relationships not only in regards to potency and spectrum, but also with a view to obviating resistance mechanisms.

Staphylococcus aureus = experiment: MIC against ribosome-based resistance phenotypes; type: cell-based; conditions: read-out: Minimum Inhibitory Concentration (MIC)
Excerpt: as §1

Enterococcus faecium = experiment: MIC against ribosome-based resistance phenotypes; type: cell-based; conditions: Enterococcus faecium A6349; VanA + Lin-R (G2576U); read-out: Minimum Inhibitory Concentration (MIC)
Excerpt: as §1, with “mechanisms. The assays can be performed in microtiter trays according to conventional methodologies as published by The National Committee for Clinical Laboratory Standards (NCCLS) guidelines (NCCLS. M7-A5-Methods for Dilution Antimicrobial Susceptibility Tests for Bacteria That Grow Aerobically; Approved Standard-Fifth Edition. NCCLS Document M100-S12/M7 (ISBN 1-56238-394-9)).” for “mechanisms.”

[9] = Long-term rat safety study; type: in vivo
Excerpt: There was 100% survival in all dose groups.

[10] = Radezolid levels in granuloma pouch and plasma; type: in vivo; conditions: FIGS. 3-4
[11] = type: physicochemical; conditions: radezolid salt forms in HPLC grade water, ambient temperature; listed as Free base
[12] = Approximate solubility in solvents by aliquot addition; type: physicochemical; conditions: ambient temperature
Procedure: Solubilities of the radezolid free base and radezolid HCl salt in various solvents were estimated and are shown in Tables 10 and 11, respectively, below. A weighed sample was treated with aliquots of test solvent at ambient temperature. Complete dissolution of the test material was determined by visual inspection. Solubility was estimated based on the total solvent used to provide complete dissolution. The actual solubility may be greater than the approximate solubility calculated because of the use of solvent aliquots that were too large or due to a slow rate of dissolution. […] If complete dissolution was achieved as a result of only one aliquot addition, the solubility is expressed as “greater than.” The approximate solubilities were rounded to the nearest whole number.

[13] = system: mammalian cells (e.g., defense cells, macrophages, lung cells, and non-phagocytic cells); conditions: cited from earlier work
Listeria monocytogenes = conditions: cited from earlier work
Legionella pneumophila = conditions: cited from earlier work
[14] = ATCC14018, G. vaginalis ATCC 14018
[15] = ATCC49145, G. vaginalis ATCC 49145

CC(=O)NC[C@H]1CN(c2ccc(-c3ccc(CNCc4cnn[nH]4)cc3)c(F)c2)C(=O)O1 [Radezolid, (5S)—N-[3-(2-Fluoro-4′-{[(1H-[1,2,3]triazol-4-ylmethyl)-amino]-methyl}-biphenyl-4-yl)-2-oxo-oxazolidin-5-ylmethyl]-acetamide]
MIC (B. fragilis): 4 µg/mL (≈ 9.12 µM) | MIC (B. thetaiotaomicron [1]): > 8 µg/mL | agar dilution MIC, fold more potent than linezolid (F. magna [2]; F. magna): 4 fold | difference between broth and agar dilution MICs (F. magna [2]; F. magna): 4 fold | MIC (F. magna [2]; Finegoldia magna, ATCC15794, F. magna ATCC 15794): 0.5 µg/mL (≈ 1.14 µM) | MIC (P. acnes; ATCC11827, P. acnes ATCC 11827): 0.125 µg/mL (≈ 0.285 µM) | MIC (P. acnes; ATCC11828, P. acnes ATCC 11828): 0.125 µg/mL (≈ 0.285 µM) | MIC (P. acnes; ATCC29399, P. acnes ATCC 29399): 0.125 µg/mL (≈ 0.285 µM) | agar dilution MIC, fold more potent than linezolid (P. acnes; P. acnes): 4 fold | agar dilution MIC, fold more potent than linezolid (P. granulosum [3]; P. granulosum): 8 fold | MIC (P. granulosum [3]; P. granulosum ATCC 25746): 0.25 µg/mL (≈ 0.57 µM) | agar dilution MIC, fold more potent than linezolid (G. vaginalis [4]; G. vaginalis): 8 fold | MIC (G. vaginalis [4]; [14]): 0.06 µg/mL (≈ 0.137 µM) | MIC (G. vaginalis [4]; [15]): 0.06 µg/mL (≈ 0.137 µM) | MIC (all organisms): 0.06 to 1 µg/mL (≈ 0.137 to 2.28 µM) | MIC (B. thetaiotaomicron [5]): 8 µg/mL (≈ 18.2 µM) | MIC (F. magna [6]): 0.125 µg/mL (≈ 0.285 µM) | broth microdilution, fold more active than linezolid (P. granulosum [7]; P. granulosum): 8 fold | MIC (P. granulosum [7]; P. granulosum ATCC 25746): 0.125 µg/mL (≈ 0.285 µM) | broth microdilution, fold more active than linezolid (G. vaginalis [8]; G. vaginalis 49145): 8 fold | MIC (G. vaginalis [8]; [14]): 0.125 µg/mL (≈ 0.285 µM) | MIC (G. vaginalis [8]; [15]): 0.06 µg/mL (≈ 0.137 µM) | MIC (Enterococcus faecalis; ATCC29212, Enterococcus faecalis ATCC29212, phenotype QC): 0.25 µg/mL (≈ 0.57 µM) | MIC (Enterococcus faecalis; ATCC29212, Enterococcus faecalis ATCC29212-P5, Lin-R (G2576U)): 1 µg/mL (≈ 2.28 µM) | MIC (Enterococcus faecalis; Enterococcus faecalis 1069, VanB): 0.25 µg/mL (≈ 0.57 µM) | MIC (Staphylococcus aureus; ATCC29213, Staphylococcus aureus ATCC29213, phenotype QC): 1 µg/mL (≈ 2.28 µM) | MIC (Staphylococcus aureus; Staphylococcus aureus 01A1095, Mac-R): 1 µg/mL (≈ 2.28 µM) | MIC (Staphylococcus aureus; Staphylococcus aureus A7820, Lin-R (G2576U) + Mac-R (ErmC)): 16 µg/mL | MIC (Enterococcus faecium): 0.5 µg/mL | survival ([9]; both, rat, in vivo): 100% | Safety margin (Rat NOAEL AUC/Human efficacious AUC) ([9]; calculated from rat and human AUC 0-24): 30.8x | AUC(0-t) ([9]; male, rat, in vivo, 200 mg/kg): 102 µg·h/mL | changes in hematology, coagulation, clinical chemistry, or urinalysis ([9]; rat, in vivo): No test article-related changes | safety in long-term rat study ([9]; rat, in vivo): good safety | levels in granuloma pouch versus plasma over time [10]: remain high in granuloma pouch even as they decline in the plasma | solubility [11]: <0.02 mg/mL | solubility ([12]; 2,2,2-trifluoroethanol (TFE), organic solvent or mixture, thermodynamic from solid, 2,2,2-trifluoroethanol (TFE)): ≥ 54000 µg/mL | solubility ([12]; HFIPA/methanol (1:3 by volume), organic solvent or mixture, thermodynamic from solid, HFIPA/Methanol (1:3 by volume)): < 1000 µg/mL | solubility ([12]; acetone, organic solvent or mixture, thermodynamic from solid): < 1000 µg/mL | solubility ([12]; acetonitrile, organic solvent or mixture, thermodynamic from solid): < 1000 µg/mL | solubility ([12]; dichloromethane, organic solvent or mixture, thermodynamic from solid): < 1000 µg/mL | solubility ([12]; ethyl acetate, organic solvent or mixture, thermodynamic from solid): < 1000 µg/mL | solubility ([12]; ethyl ether, organic solvent or mixture, thermodynamic from solid): < 1000 µg/mL | solubility ([12]; hexafluoroisopropanol (HFIPA), organic solvent or mixture, thermodynamic from solid): ≥ 245000 µg/mL | solubility ([12]; hexamethylphosphoramide, organic solvent or mixture, thermodynamic from solid, Hexamethyl-phosphoramide): < 26000 µg/mL | solubility ([12]; methanol, organic solvent or mixture, thermodynamic from solid): < 1000 µg/mL | solubility ([12]; tetrahydrofuran (THF), organic solvent or mixture, thermodynamic from solid): < 1000 µg/mL | solubility ([12]; water, thermodynamic from solid): < 1000 µg/mL | fraction accumulating in the cytosol of cells ([13]; cytosol): Approximately 60% | fraction accumulating in the lysosome ([13]; lysosome): approximately 40% | accumulation in mammalian cells, extent greater than linezolid ([13]; relative to linezolid): 17 fold | intracellular killing (Listeria monocytogenes): kills | intracellular killing (Legionella pneumophila): kills
